Experiments:
[1] = test system: MDA-MB-231 cells; settings: 500 μM; cited from earlier work
[2] = test system: IRPs; assay: Electrophoretic mobility shift assay for IRE-binding by IRPs from treated cells; type: cell-based, human; settings: treated MDA-MB-231 cells, 24 h, radiolabeled RNA ligand
Procedure: The resultant pellets (˜50 μL) were washed with PBS and then lysed using a protocol described previously.^41 Briefly, cell pellets were resuspended in 200 μL of cell lysis buffer, which was 20 mM Hepes-HCl buffer, pH 7.4, containing sodium pyrophosphate (10 mM), sodium fluoride (50 mM), β-glycerophosphate (50 mM), EDTA (5 mM), GTP (1 mM), sodium orthovanadate (1 mM), benzamidine hydrochloride (2 mM), Nonidet NP-40 (0.5% v/v), p-nitrophenyl p′-guanidinobenzoate-HCl (25 μg/mL), DTT (1 mM), leupeptin (40 μg/mL), pepstatin (4 μg/mL), SBTI (100 μg/mL), MG132 (10 μM), PMSF (200 μM), and BHT (5 μg/mL) by vortexing and lysed on ice by vortexing every few min. After 15 min, the lysates were centrifuged at 14,000 rpm and the supernatants aliquoted and stored at −80° C. until analysis by an electrophoretic mobility shift assay (EMSA).
EMSAs were performed and quantified essentially as described previously.^42 Briefly [^32P]-L-ferritin IRE (1 nM RNA, specific radioactivity ˜7,000 dpm/fmol) was incubated with lysate protein (2.5 μg as determined by the Bradford assay) in binding buffer for 10 min on ice. Heparin was added (to 0.5 mg/mL), and the reaction mixture was incubated for an additional 5 min on ice before separating bound and free RNA on a nondenaturing polyacrylamide gel at ambient temperature.

[3] = test system: breast cancer; settings: mouse model of breast cancer, Gilkes et al.; cited from earlier work
[4] = titration of 20 μM FeSO4; bipy; read-out: Fe20-EC50; cited from earlier work
[5] = cited from earlier work
[6] = molecular target: T1, human CP4H1 (Homo sapiens, UniProt P13674); assay: Assay of human CP4H1 activity in the presence of inhibitors; type: biochemical
T1 construct: made in house; host or cells: Origami B(DE3) Escherichia coli
Procedure: The catalytic activity of human CP4H1 was assayed as described previously.^35 Briefly, activity assays were carried out at 30° C. in 100 μL Tris-HCl buffer, pH 7.8, containing human CP4H1 (100 nM), inhibitor (0-500 μM), substrate (dansylGlyProProGlyOEt, 500 μM), FeSO4 (50 μM), BSA (1 mg/mL), catalase (0.1 mg/mL), sodium ascorbate (2 mM), DTT (100 μM), and α-ketoglutarate (100 μM). Reactions were pre-incubated with or without inhibitor for 2 min at 30° C., after which the reaction was initiated by the addition of α-ketoglutarate. After 15 min, reactions were quenched by boiling for 45 s and centrifuged at 10,000 g. The supernatant (20-50 μL) was injected into a Nucleodur® C18 Gravity reversed-phase column (4.6×250 mm, 5 μm particle size) from Macherey-Nagel (Bethlehem, Pa.). The column was eluted at 1 mL/min with a gradient (20 min) of aqueous acetonitrile (20-45% v/v) containing 0.1% v/v TFA. The absorbance of the eluent was monitored at 289 nm. All assays were performed in triplicate. Data are reported as activity relative to control reactions lacking inhibitor, where catalytic activity is determined from the percent conversion of substrate to product. Dose-response curves were generated for each inhibitor by plotting the relative activity versus the log of the inhibitor concentration. IC50-values for each inhibitor were interpolated from the data by non-linear regression using the sigmoidal dose-response function available in Prism.

[7] = molecular target: T2, human PHD2 (Homo sapiens, UniProt Q9GZT9); assay: Assay of human PHD2 activity in the presence of inhibitors; type: biochemical; settings: 10 μM compound
T2 construct: made in house
Procedure: The catalytic activity of human PHD2 was assayed as described previously.^36 Briefly, activity assays were carried out at 30° C. in 100 μL Tris-HCl buffer, pH 7.8, containing human NHis6-PHD2181-426 (5 μM), inhibitor (0-50 μM), substrate (HIF-1α peptide556-574, 50 μM), FeSO4 (50 μM), BSA (1 mg/mL), catalase (0.3 mg/mL), sodium ascorbate (2 mM), DTT (1 mM), and α-ketoglutarate (35 μM). Reactions mixtures were pre-incubated with or without inhibitor for 2 min at 30° C., after which the reaction was initiated by the addition of α-ketoglutarate. After 10 minutes, reactions were quenched by boiling for 60 s and centrifuged at 10,000 g. The supernatant (50 μL) was injected into a Nucleodur® C18 Gravity reversed-phase column (4.6×250 mm, 5 μm particle size) from Macherey-Nagel (Bethlehem, Pa.). The column was eluted at 1 mL/min with a gradient (34 min) of 5-56% aqueous acetonitrile containing 0.1% v/v TFA. The absorbance of the eluent was monitored at 218 nm. All assays were performed in triplicate. Data is reported as activity relative to control reactions lacking inhibitor, where activity is determined from the percent conversion of substrate to product.

T1 sequence (P13674 18-534): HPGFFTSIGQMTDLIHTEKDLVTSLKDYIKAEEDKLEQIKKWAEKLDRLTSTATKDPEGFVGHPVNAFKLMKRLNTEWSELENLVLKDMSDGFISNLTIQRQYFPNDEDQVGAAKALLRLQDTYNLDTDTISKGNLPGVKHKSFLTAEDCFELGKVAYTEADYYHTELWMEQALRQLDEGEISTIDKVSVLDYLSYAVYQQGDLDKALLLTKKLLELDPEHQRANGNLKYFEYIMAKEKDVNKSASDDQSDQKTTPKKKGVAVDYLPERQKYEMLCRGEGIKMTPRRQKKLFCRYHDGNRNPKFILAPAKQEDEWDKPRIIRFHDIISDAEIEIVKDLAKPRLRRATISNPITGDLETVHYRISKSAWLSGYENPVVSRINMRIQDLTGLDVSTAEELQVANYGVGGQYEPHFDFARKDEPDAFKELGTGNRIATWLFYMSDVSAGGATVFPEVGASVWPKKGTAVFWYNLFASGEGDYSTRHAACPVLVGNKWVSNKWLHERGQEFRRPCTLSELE
T1 sequence (P07237 18-508 partner): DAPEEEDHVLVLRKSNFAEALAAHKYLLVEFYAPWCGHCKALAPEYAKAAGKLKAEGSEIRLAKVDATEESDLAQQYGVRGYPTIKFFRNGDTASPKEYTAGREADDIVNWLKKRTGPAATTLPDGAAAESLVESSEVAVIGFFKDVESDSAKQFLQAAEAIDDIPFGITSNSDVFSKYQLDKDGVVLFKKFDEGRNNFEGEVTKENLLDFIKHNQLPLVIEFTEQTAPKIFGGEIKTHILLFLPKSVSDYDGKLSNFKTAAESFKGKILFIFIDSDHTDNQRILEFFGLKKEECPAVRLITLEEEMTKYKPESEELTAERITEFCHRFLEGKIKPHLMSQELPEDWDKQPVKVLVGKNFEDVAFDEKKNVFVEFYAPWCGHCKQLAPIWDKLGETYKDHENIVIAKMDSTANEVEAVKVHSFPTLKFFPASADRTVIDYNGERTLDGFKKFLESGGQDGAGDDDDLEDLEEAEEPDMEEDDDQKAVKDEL
T2 sequence (Q9GZT9 181-426 limits assumed): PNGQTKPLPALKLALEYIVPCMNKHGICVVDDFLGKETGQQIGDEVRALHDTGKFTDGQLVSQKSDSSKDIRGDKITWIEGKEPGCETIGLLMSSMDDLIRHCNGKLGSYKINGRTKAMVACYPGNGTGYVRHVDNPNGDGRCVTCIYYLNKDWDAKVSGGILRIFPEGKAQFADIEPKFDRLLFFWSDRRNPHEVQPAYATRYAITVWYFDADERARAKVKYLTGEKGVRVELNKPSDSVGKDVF

Row | Inhibition of catalytic activity of human CP4H1 in initial screen ([6]; 10 μM compound, 50 μM FeSO4) | IC50 ([6]; dose-response, mean of three independent experiments) | Potency relative to pyoxDC ([6]; from dose-response IC50 values) | Inhibition of human PHD2 in screen [7] | Compound | Collagen secretion [1] | RNA binding by IRPs [2] | Tumor fibrosis and metastasis [3] | EC50 [4] | Heteroaryl pKa (ref.) ([5]; conjugate acid of pyridine (bipy) or the nonpyridyl ring) | pKa ([5]; conjugate acid of the entire compound, bipy)
1 |  |  |  |  | CCOC(=O)c1ccc(O)c(O)c1 [EDHB, Ethyl dihydroxybenzoate] | diminish collagen secretion significantly | significant increases | decreases tumor fibrosis and metastasis |  |  | 
2 |  |  |  |  | c1ccc(-c2ccccn2)nc1 [bipy, 2,2′-bipyridine, reference compound] |  | significant increases |  | 43 ± 2 µM | 5.2 (48) | 4.3
3 | inhibitors | 2.6 ± 0.1 µM | approximately 10 fold | only weakly | O=C(O)c1ccc(-c2ncc(C(=O)O)[nH]2)nc1 [pyimDC, 2-(5-Carboxy-1-H-imidazol-2-yl)pyridine-5-carboxylic Acid] |  |  |  |  |  | 

From patent US9809586B2, “Inhibitors of collagen prolyl 4-hydroxylase” (WISCONSIN ALUMNI RESEARCH FOUNDATION, priority 2015, dated 2017)
